# Read-outs that look alike come from different tables or passages of the source.
# Assays:
# pleural inflammation = experiment: reverse passive Arthus pleurisy assay, pleural inflammation; assay type: in vivo; details: rat; for ED30: po, 4 h; for ED30 / ED30 Fluid Exudation: p.o.
# Experimental: (§1) The compounds of the invention are further tested in the reverse passive Arthus pleurisy assay to evaluate their effectiveness in inflammatory mediator release and/or the fluid and cellular phases of an inflammatory response.
# (§2) A reverse passive Arthus reaction is induced in the pleural cavity of male Lewis rats (150-200 g; fasted overnight prior to use) by the intravenous administration of bovine serum albumin (BSA; 4 mg/0.2 ml) followed 30 minutes later by the injection of rabbit anti-BSA (1 mg/0.2 ml; lyophilized IgG fraction; Organon Teknika, West Chester, PA) into the right pleural space under halothane anesthesia. Drugs or vehicle (0.5% Tween-80) control are administered orally in a volume of 1 ml/100 g body weight at 1 hour prior to the anti-BSA. Animals are sacrificed at either the time of peak eicosanoid production (i.e. 5 minutes after anti-BSA for immunoreactive TxB2, 10 minutes for immunoreactive LTB4, 20 minutes for immunoreactive LTC4) or at the time of peak neutrophil infiltration (4 hours after anti-BSA) by CO2 inhalation. The pleural cavity is then exposed, the fluid exudate removed by gentle vacuum aspiration and the volume of exudate is recorded. For the determination of cellular infiltration, the pleural cavity is rinsed with 3 ml of 0.1% EDTA in sterile saline, and the recovered wash is pooled with the exudate. Cell number is determined on a model ZBI Coulter counter. For determination of eicosanoid production, undiluted pleural exudate is microfuged and the supernatant is extracted with ethanol (8-10 times volume). Extracts are either stored at -20° C., or are evaporated to dryness under a stream of N2 and reconstituted in radioimmunoassay (RIA) buffer.
# (§3) Inflammatory cells are expressed as 10^6 cells/ml, pleural exudate is expressed as ml of fluid, and the amount of eicosanoids in the pleural cavity is expressed as ng/ml of exudate. Mean±S.E.M. is determined for each group. Percent inhibition (% I) of cell number, exudate volume and eicosanoid production is calculated for vehicle-treated control groups, and the responses in drug-treated rats are then expressed as the mean $ I of control.
# [1] = tested on: inflammatory mediator release; experiment: reverse passive Arthus pleurisy assay, inflammatory mediator release; assay type: in vivo, rat; details: rat; for ED50: Rattus norvegicus, po
# Experimental: as §1
# as §2, with “Drugs or vehicle (0.5% Tween-80) control are administered orally in a volume of 1 ml/100 g body weight at 1 hour prior to the anti-BSA.” left out
# Eicosanoids are quantitated by RIA according to the procedure specified by the RIA kit manufacturer (Advanced Magnetics, Cambridge, MA). Briefly, 100 μl of ^3 H-labeled eicosanoid and 100 μl of specific antibody are sequentially added to 100 μl of extracted pleural exudate in BGG-phosphate buffer which contains 0.01 M phosphate, 0.1% bovine gamma globulin and 0.1% sodium azide at pH 7.0. Antibody-bound eicosanoid is separated form unbound eicosanoid by the addition of 750 μl of dextran (0.4%)-coated charcoal (0.4% Norit A) containing 0.1% sodium azide. The mixture is centrifuged at 2000 RPM at 5° C. for 15 minutes to pellet the charcoal and adsorbed unbound eicosanoid. Antibody-bound labeled eicosanoid is quantitated by counting in a liquid scintillation counter, and is correlated to concentration by a standard curve.
# as §3
# LTD4 = molecular target: T1, LTD4 (Cavia porcellus, UniProt Q2NNR5); experiment: LTD4 antagonist activity in isolated guinea pig trachea; assay type: cell-based; details: reference leukotriene antagonists
# T1 construct: isolated guinea pig trachea; from tissue; host or cells: guinea pig tracheal rings
# T1 sequence (Q2NNR5 1-340): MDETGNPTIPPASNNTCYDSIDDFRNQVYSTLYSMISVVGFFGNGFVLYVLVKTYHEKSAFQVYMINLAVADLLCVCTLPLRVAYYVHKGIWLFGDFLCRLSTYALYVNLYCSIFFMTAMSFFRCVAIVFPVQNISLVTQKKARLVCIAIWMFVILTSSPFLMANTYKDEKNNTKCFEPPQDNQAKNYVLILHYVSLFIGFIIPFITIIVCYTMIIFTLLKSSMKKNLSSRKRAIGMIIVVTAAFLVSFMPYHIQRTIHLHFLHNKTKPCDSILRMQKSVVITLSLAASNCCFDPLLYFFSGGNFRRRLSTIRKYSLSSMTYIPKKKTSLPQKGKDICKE
# Experimental: The LTD4 antagonist activity of the compounds of the invention is assessed in the in vitro isolated guinea pig trachea assay. Male Hartley guinea pigs (350-400 g) are euthanized by a blow to the head, the neck is opened and the trachea removed. The trachea is maintained in aerated physiological salt solution, cleared of connective tissue and fat and cut into rings approximately 2 mm in width (usually containing two cartilaginous segments per ring). Two pieces of silk suture are then passed through the lumen of the tracheal ring and are tied around the cartilage, one on each side of the trachealis muscle. The tracheal ring is suspended between a glass hook and a force displacement transducer in a 10 ml organ bath for measurement of isometric tension. Tissues are maintained at 37° C. in aerated ([…] /5% CO2) physiological salt solution of the following composition: […] The tracheal rings are maintained at 2 g resting tension and equilibrated for 45 minutes (with frequence washing and readjustment of resting tension). The tracheal rings are first contracted by the addition of carbachol (3×10^-6 M), to determine tissue responsiveness and establish a reference contraction. On attainment of a stable level of contraction (approximately 30 minutes), the tissues are washed several times until baseline tension has been restored and the re-equilibrated for 30 minutes. The tissues are then incubated for 45 minutes with a test antagonist (either 1×10^-6 M or 1×10^-5 M) or 10 μl of an appropriate solvent control (control, non-treated). One tissue in each group serves as the control. Twenty minutes prior to the construction of the LTD4 cumulative concentration-response curve, L-[…]×10^-2 M final bath concentration) is added to inhibit bioconversion of LTD4 to LTE4. Only one LTD4 concentration-response curve is constructed in each tissue. All responses to LTD4 in an individual tissue are measured as a percentage of the reference contraction of that tissue to carbachol. LTD4 antagonist activity is determined by comparison of the concentration response curves of LTD4 in the presence and absence of antagonist. Assessment of the relative rightward shift of the antagonist treated curve relative to the solvent (control) treated tissue is calculated as a concentration ratio (Eq. A) and used in subsequent calculations to derive an antagonist pKB value (Eqs. B and C). In the vent that the maximum response to LTD4 is depressed, the EC50 for that particular curve is determined, an "apparent" pKB reported, and the compound reported as "not-competitive." [formula] If a compound is found to be active and/or depress the maximal response to LTD4, then a range of concentrations of the test compound should be used generating multiple concentration ratios which would than be used to perform a Schild analysis, and determination of a pA2 value where appropriate.
# 5-lipoxygenase = molecular target: T2, 5-lipoxygenase (Rattus norvegicus, UniProt P12527); experiment: inhibition of 5-HETE synthesis by rat glycogen elicited polymorphonuclear leukocytes; assay type: cell-based; details: read-out: % Inhibition of 5-LO (as 5-HETE)
# T2 construct: Peritoneal PMN are obtained from female Wistar rats (150-250 g); endogenous in cells; host or cells: rat glycogen-elicited peritoneal polymorphonuclear leukocytes, intact
# T2 sequence (P12527 1-673): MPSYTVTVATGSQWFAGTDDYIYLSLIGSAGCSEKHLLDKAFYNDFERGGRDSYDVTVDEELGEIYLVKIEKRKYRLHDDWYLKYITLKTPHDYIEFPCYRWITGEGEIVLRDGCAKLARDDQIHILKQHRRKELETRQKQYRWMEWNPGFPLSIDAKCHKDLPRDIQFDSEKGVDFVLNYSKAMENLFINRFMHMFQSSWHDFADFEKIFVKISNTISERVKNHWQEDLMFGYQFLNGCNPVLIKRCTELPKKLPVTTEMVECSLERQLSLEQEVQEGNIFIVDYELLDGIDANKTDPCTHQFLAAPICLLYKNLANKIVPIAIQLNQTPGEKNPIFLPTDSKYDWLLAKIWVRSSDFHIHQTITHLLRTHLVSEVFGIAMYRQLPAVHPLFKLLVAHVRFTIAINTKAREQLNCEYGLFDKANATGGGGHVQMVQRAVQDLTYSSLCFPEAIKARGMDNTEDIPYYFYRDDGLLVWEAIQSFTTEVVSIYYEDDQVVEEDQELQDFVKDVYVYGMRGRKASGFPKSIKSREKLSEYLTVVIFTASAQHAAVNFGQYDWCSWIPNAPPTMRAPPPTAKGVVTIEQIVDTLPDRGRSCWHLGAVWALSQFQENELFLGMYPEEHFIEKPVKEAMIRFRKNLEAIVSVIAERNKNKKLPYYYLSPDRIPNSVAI
# Experimental: The assay of this Example measures the ability of the compounds of the invention to inhibit the synthesis of 5-HETE by rat glycogen elicited polymorphonuclear leukocytes.
# (§4) Peritoneal PMN are obtained from female Wistar rats (150-250 g) that received an i.p. injection of 6% glycogen (10 ml). After 24 hours, rats are killed by CO2 asphysiation and peritoneal cells are harvested by peritoneal lavage using Ca^++ and MG^++ free Hanks' balanced salt solution (HBSS). The peritoneal exudate is centrifuged at 400 g for 10 minutes. After centrifugation, the lavaged fluid is removed and the cell pellet is resuspended in HBSS containing Ca^++ and MG^++ and 10 mM L-cysteine at a concentration of 2×10^7 cells/ml. To 1 ml portions of cell suspension, test drugs or vehicle are added and incubated at 37° C. for 10 minutes. Following this preincubation, the calcium ionophore (10 μM), a23187, is added together with 0.5 μM [14 C] arachidonic acid and further incubated for 10 minutes. The reaction is stopped by the addition of ice cold water (3 ml) and acidifying to pH 3.5. Lipoxygenase products are then extracted twice into diethyl ether. The pooled ether extracts are evaporated to dryness under nitrogen and the residue is redissolved in a small volume of methanol and spotted on aluminum backed pre-coated thin layer chromatographic plates. The samples are then cochromatographed with authentic reference 5-HETE in the solvent system - hexane: ether: acetic acid (50:50:3). After chromatography, the areas associated with 5-HETE standard are identified by autoradiography, cut out and quantitated by liquid scintillation.
# cyclooxygenase = experiment: inhibition of synthesis of cyclooxygenase products TxB2 and PGE2 (rat polymorphonuclear leukocytes); assay type: cell-based; details: 10 μM; rat PMN; negative = potentiation of PGE2 synthesis
# Experimental: as §4
# However, in order to determine cyclooxygenase activity, the samples are cochromatographed with authentic reference TxB2 and PGE2 in the solvent system ethyl acetate: formic acid (80:1) and the upper phase of ethyl acetate: isooctane: acetic acid: water (110:50:20:100). After chromatography, the areas associated with the TxB2 and PGE2 standards are identified by autoradiography, cut out and quantitated by liquid scintillation techniques.
# [2] = 5 min, p.o., 1 hour prior to anti-BSA, read-out: ED50 TxB2
# [3] = 10 min, p.o., 1 hour prior to anti-BSA, read-out: ED50 LTB4
smiles,measurement,setting,value
O=C1CCN(c2ccccc2)N1 [Phenidone],ED30,pleural inflammation; read-out: ED30 Cellular Influx,23 mg/kg
same,ED30,pleural inflammation; read-out: ED30 Fluid Exudation,21 mg/kg
same,ED50,[1]; [2],69 mg/kg
same,ED50,[1]; [3],10 mg/kg
NC1=NN(c2cccc(C(F)(F)F)c2)CC1 [BW755C],ED30,pleural inflammation; read-out: ED30 Cellular Influx,28 mg/kg
same,ED30,pleural inflammation; read-out: ED30 Fluid Exudation,14 mg/kg
same,ED50,[1]; [2],18 mg/kg
same,ED50,[1]; [3],23 mg/kg
C[C@@H]1C[C@H]2[C@@H]3CCC4=CC(=O)C=C[C@]4(C)[C@@]3(F)[C@@H](O)C[C@]2(C)[C@@]1(O)C(=O)CO [Dexamethasone],ED30 Fluid Exudation,pleural inflammation,0.05 mg/kg
same,ED30,pleural inflammation; read-out: ED30 Cellular Influx,0.13 mg/kg
"CCCc1c(OCCCCc2nn[nH]n2)ccc(C(C)=O)c1O [Ly-171,883, reference compound]",pKB,LTD4,7.44 ± 0.12
COc1ccc2cc([C@H](C)C(=O)O)ccc2c1 [naproxen],inhibition at 10 µM,5-lipoxygenase,-94%
same,% Inh Cellular Influx,pleural inflammation; 8 mg/kg p.o.,29%
same,ED30 Fluid Exudation,pleural inflammation,3.9 mg/kg
same,% Inh LTB4,[1]; 4 mg/kg p.o.,0%
same,ED50 TxB2,"[1]; p.o., 1 hour prior to anti-BSA, 5 min",0.24 mg/kg
same,% Inhibition of CO (as PGE2),cyclooxygenase,85%
"O=S(=O)(Nc1cccc(OCc2ccc3ccccc3n2)c1)C(F)(F)F [Wy-48,252, reference compound]",pKB,LTD4,6.90 ± 0.23
CN1C(C(=O)Nc2ccccn2)=C(O)c2ccccc2S1(=O)=O [Piroxican],ED30,pleural inflammation; read-out: ED30 Cellular Influx,3 mg/kg
same,ED30,pleural inflammation; read-out: ED30 Fluid Exudation,1 mg/kg

# Source: US5208344A, “Naphthalenepropionic acid derivatives as anti-inflammatory/antiallergic agents” (American Home Products Corporation, priority 1991, dated 1993)
